According to patent publication US9187397B2 (STC.UNM, priority 2004, dated 2015):
Read-outs that look alike come from different tables or passages of the source. Blank lines part the entries; values can stand above or below the compound they belong to.

Columns and labels:
AP-1 = AP-1 luciferase reporter cellular assay (293/AP1-luc, PMA-stimulated); format: cell-based, human; conditions: for activity in the AP-1 cellular assay (screen): 15 μM, compared with curcumin; for IC50: Homo sapiens, inhibition of PMA-induced AP-1 activation, 293/AP1-luc cells, Table 10, read-out: AP-1 IC50
Procedure: This cell line is obtained by co-transfection of pAP1-luc and pTK-hyg containing plasmids followed by the addition of hygromycin (200 μg/ml) to maintain cell selection.
After 24 hr, the cells had reached approximately 60% confluency. […] Plate wells were gently washed with PBS, pH 7.4, and lysed with passive lysis buffer (1×, 100 μl, Promega). The subsequent chemiluminescent lysates were analyzed with the Luciferase Assay System (Promega) utilizing a TD-20/20 luminometer. The relative light units (photons) were determined by the addition of firefly luciferase substrate (75 μl) to cell lysate (10 μl). The light units were then normalized to the amount of protein in the well (mg/ml) with BCA™ Protein Assay Kit (Pierce) and standardized to percent of control (PMA).
(§1) This cell line is stably transfected with a luciferase reporter controlled by an AP-1 dependent promoter. The cell is stimulated with phorbol ester which activates AP-1. AP-1 then binds to one of three promoter regions on the cells DNA leading to the production of a luciferase enzyme. Luciferin is added to the cell lysates and the luciferase enzyme catalyzes a cleavage of luciferin leading to the emission of light.

[1] = molecular target: glutathione S-transferase P1-1 (Homo sapiens (Human), UniProt P09211); assay: GSTP1-1 enzyme inhibition assay (CDNB/GSH, 340 nm); format: biochemical; conditions: 1 mM CDNB, 1 mM GSH, pH 6.5; compared with curcumin
glutathione S-transferase P1-1, sequence (P09211 2-210): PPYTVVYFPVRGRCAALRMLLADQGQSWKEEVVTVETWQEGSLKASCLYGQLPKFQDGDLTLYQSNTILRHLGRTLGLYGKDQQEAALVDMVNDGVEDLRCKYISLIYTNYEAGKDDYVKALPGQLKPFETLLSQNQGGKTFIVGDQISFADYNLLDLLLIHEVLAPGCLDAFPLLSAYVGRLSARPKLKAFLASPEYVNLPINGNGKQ
Procedure: Kinetic analysis assays were conducted. […] GSTP1-1 activity was measured at pH 6.5 in 1 ml volumes of 20 mM potassium phosphate buffer containing 100 mM NaCl, 1 mM CDNB and 1 mM GSH. […] (Perkin/Elmer Lambda 2S spectrophotometer). These activities were plotted as percent of control (GSTP1-1 activity without inhibitors). Kinetic analysis (dissociation constants) of inhibitors was determined by linear regression analysis of the Dixon, plots. […] Ki's were calculated utilizing SigmaPlot's Enzyme Kinetics Module™ (Chicago, Ill., USA). […]
These activities were plotted as percent of control (GSTP1-1 activity without inhibitors).

NF-κB = NF-κB luciferase reporter cellular assay (293T/NF-κB-luc, TNFα-stimulated); format: cell-based, human; conditions: for inhibition of the activation of NF-κB by TNFα (screen): 10 μM, compared with curcumin; for IC50: Homo sapiens, HEK-293T, inhibition of TNFα-induced NF-κB activation
Procedure: The cell line is derived from human 293T embryonic kidney cells expressing the large T antigen containing a chromosomal integration of a luciferase reporter construct regulated by 6 copies of the NF-κB response element (Panomics, Inc.). This stable clonal cell line is obtained by co-transfection of pNF-κB-luc and pTK-hyg containing plasmids followed by the addition of hygromycin (200 μg/ml) to maintain cell selection.
The cell line was grown in a humidified atmosphere at 37° C. in 5% CO2/95% air and maintained in Dulbecco's Modified Eagle's Medium (DMEM-high glucose containing 4 mM glutamine) containing fetal bovine serum (FBS, 10%), sodium pyruvate (1 mM), penicillin (100 units/ml), streptomycin (100 μg/ml) and hygromycin (100 μg/m) to maintain cell selection (Gibco/Invitrogen).
The 293T/NF-κB-luc cells were re-plated 24 hr prior to treatment, into 24-well cell culture plates in media without hygromycin, to prevent it from interfering with the assay. The cells were then allowed to grow and attach, to the wells, for 24 hr in a humidified atmosphere at 37° C. in 5% CO2/95% air. […] The cells then were placed again in a humidified atmosphere at 37° C. in 5% CO2/95% air for 7 hr. Plate wells were gently washed with PBS, pH 7.4, and lysed with passive lysis buffer (1×, 100 μl, Promega). The subsequent chemiluminescent lysates were analyzed with the Luciferase Assay System (Promega) utilizing a TD-20/20 luminometer. The relative light units (photons) were determined by the addition of firefly luciferase substrate (75 μl) to cell lysate (10 μl). The light units were then normalized to the amount of protein in the well (mg/ml) with BCA™ Protein Assay Kit (Pierce) and standardized to percent of control (TNFα).
as §1, with “This assay utilized a commercially available cell line (Panomics 293T-luc cellular assay) developed for screening inhibitors of NF-κB. This” for “This”, “NF-κB” for “AP-1”, “tumor necrosis factor alpha (TNFα)” for “phorbol ester”, “NF-κB. NF-κB” for “AP-1. AP-1”, “six” for “three”, “cell's” for “cells”
This cell line was developed by Panomics for screening potential inhibitors of NF-κB. Cells are stimulated with TNF-α to express luciferase, whose activity is monitored in a chemiluminometer.
An NF-κB reporter stable cell line from human 293T embryonic kidney cells (293T/NFκB-luc) (Panomics) was grown in a humidified atmosphere at 37° C. in 5% CO2/95% air. The cells were maintained in Dulbecco's Modified Eagle's Medium (DMEM—high glucose containing 4 mM glutamine) supplemented with 10% fetal bovine serum (FBS), 1 mM sodium pyruvate, 100 units/ml penicillin, 100 μg/m streptomycin and 100 μg/ml hygromycin (Gibco/Invitrogen, Carlsbad, Calif.)) to maintain cell selection. One day prior to treatment, the 293T/NFκB-luc cells were plated into 24-well cell culture plates (Costar) at approximately 70% confluency in the above media without hygromycin. The following day cells were fed fresh media 1 hour prior to treatment. […] The cells were placed again in a humidified atmosphere at 37° C. in 5% CO2/95% air for 7 hours. Plate wells were gently washed with phosphate buffered saline, pH 7.4, and lysed with 1× passive lysis buffer (Promega). The subsequent lysates were analyzed with the Luciferase Assay System (Promega) utilizing a TD-20/20 luminometer (Turner Designs). The firefly luciferase relative light units were normalized to protein (mg/ml) with BCATM Protein Assay Kit (Pierce) and standardized to TNF-α control.

[2] = Reactivity toward L-cysteine as nucleophile (absorbance 425 nm); format: physicochemical; conditions: 1 mM L-cysteine in sodium phosphate buffer, pH 7; read-out: t1/2 of absorbance quenching by L-cysteine
Procedure: Natural log values were determined based on 1st order kinetics.
Weber et al., (2005) Bioorg Med Chem 13, 3811-3820. These groups potentially serve as Michael acceptors which are chemically reactive and can form undesirable covalent modifications with biomolecules. Michael acceptors are generally thought to be poor drug compounds because of their high reactivity toward nucleophilies.
These groups potentially serve as Michael acceptors which are a chemically reactive species that can form undesirable covalent modifications with binding targets. […] Michael acceptors are generally thought to be poor drug compounds because of their high reactivity toward nucleophiles. […] In addition, at or below neutral pH, primary amino groups are predominantly in their protonated form and therefore weak nucleophiles that are unlikely to react to any significant extent with curcumin.

Aβ oligomers and fibrils = Aβ oligomers and fibrils (Homo sapiens (Human), UniProt P05067); conditions: cited from earlier work
Aβ oligomers and fibrils, sequence (P05067 672-711): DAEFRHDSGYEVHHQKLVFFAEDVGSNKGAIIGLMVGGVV

[3] = Ferric Reducing/Anti-oxidant Power assay (FRAP assay); parameters: key to FRAP: active as an antioxidant (+); conditions: antioxidant activity
Procedure: Anti-oxidant activity was also measured in the Ferric reducing/anti-oxidant power assay (FRAP assay) in which the analogs are reacted with a ferric tripyridyltriazine complex. For the FRAP assay (Benzie et al., Meth. Enzymol. 1999, 299, 15-27), the ferric complex was prepared at room temperature by reaction of ferric chloride (16.7 mM) and 2,4,6-tripyridyl-s-triazine (8.33 mM) in acetate buffer (0.25 M) to pH 3.6. The FRAP reagent was used immediately after preparation. […] The reaction was mixed by vortexing, allowed to stabilize for 5 min and the absorbance recorded on a Perkin Elmer UV/Vis Lambda 2S. […] The synthetic analog of α-tocopherol (vitamin E), Trolox, was used as a reference standard (10 μM in ethanol).
The second assay used, the FRAP assay, determines the analogs abilities to reduce a Fe(III) tripyridyltriazine complex to a Fe(II) tripyridyltriazine complex. The following FIGS. 3A-3C) show analogs active in the FRAP assay.

[4] = Total Radical-trapping Anti-oxidant Parameter assay (TRAP assay); parameters: key to TRAP: active as an antioxidant (+); conditions: antioxidant activity
Procedure: This assay is also known as the Total radical-trapping anti-oxidant parameter assay (TRAP assay). For the TRAP assay (Re et al., Free Rad. Biol. […] The turquoise colored reaction was allowed to stabilize for 5 min and the absorbance monitored on a Perkin Elmer UV/Vis Lambda 2S. […] The following FIGS. 2A-2C) show the analogs active in the TRAP assay.

[5] = 293T/NF-κB-luc cells, Table 5, read-out: IC50

activity in the AP-1 cellular assay (screen) (AP-1): active
activity in the GSTP1-1 screening assay [1]: more active than curcumin
Structure (SMILES): O=C(/C=C/c1ccccc1)/C(Cc1ccccc1)=C(O)/C=C/c1ccccc1 [9b]

activity in the GSTP1-1 screening assay [1]: better inhibitory activity than curcumin
Structure (SMILES): O=C(/C=C/c1ccccc1Cl)/C=C/c1ccccc1Cl [20z]

activity in the GSTP1-1 screening assay [1]: better inhibitory activity than curcumin
Structure (SMILES): O=C(/C=C/c1cccc(Cl)c1)/C=C/c1cccc(Cl)c1 [20y]

activity in the GSTP1-1 screening assay [1]: better inhibitory activity than curcumin
Structure (SMILES): Cc1ccc(/C=C/C(=O)/C=C/c2ccc(C)cc2)cc1 [20aa]

Structure (SMILES): O=C(/C=C/c1ccccc1)/C=C/c1ccccc1 [20b]
activity in the GSTP1-1 screening assay [1]: better inhibitory activity than curcumin

activity in the GSTP1-1 screening assay [1]: more active than curcumin
Structure (SMILES): COc1ccccc1/C=C/C(=O)/C=C(O)/C=C/c1ccccc1OC [3c]

activity in the GSTP1-1 screening assay [1]: better inhibitory activity than curcumin
Structure (SMILES): Cc1cccc(/C=C/C(=O)/C=C/c2cccc(C)c2)c1 [20ab]

activity in the AP-1 cellular assay (screen) (AP-1): more active than curcumin
IC50 (AP-1): 8.2 µM
activity in the GSTP1-1 screening assay [1]: better inhibitory activity than curcumin
inhibition of the activation of NF-κB by TNFα (screen) (NF-κB): more active than curcumin
Structure (SMILES): O=C(/C=C/c1ccncc1)/C=C/c1ccncc1 [compound 29]

activity in the GSTP1-1 screening assay [1]: more active than curcumin
Structure (SMILES): O=C(/C=C/c1ccccc1)C(Cc1ccccc1)(Cc1ccccc1)C(=O)/C=C/c1ccccc1 [12b]

activity in the GSTP1-1 screening assay [1]: more active than curcumin
Structure (SMILES): O=C(/C=C(O)/C=C/c1ccccc1)/C=C/c1ccccc1 [3b]

activity in the GSTP1-1 screening assay [1]: better inhibitory activity than curcumin
Structure (SMILES): O=C(/C=C/c1ccc(O)cc1)/C=C/c1ccc(O)cc1 [20f]

activity in the AP-1 cellular assay (screen) (AP-1): more active than curcumin
IC50 (AP-1): 4.1 µM
activity in the GSTP1-1 screening assay [1]: better inhibitory activity than curcumin
inhibition of the activation of NF-κB by TNFα (screen) (NF-κB): more active than curcumin
IC50 (NF-κB; [5]): 3.4 µM
IC50 (NF-κB; Table 10, read-out: NF-κB IC50): 3.4 µM
Structure (SMILES): O=C(/C=C/c1cccnc1)/C=C/c1cccnc1 [compound 31]

Structure (SMILES): COc1cc(/C=C/C(=O)/C=C(O)/C=C/c2ccc(O)c(OC)c2)ccc1O [analog 3a, 1,7-Bis(4-hydroxy-3-methoxyphenyl)-1,6-heptadiene-3,5-dione]
half-life at 20 μM [2]: 7.2 min
IC50 for disaggregation of preformed fibrils (Aβ oligomers and fibrils; in vitro): 1.0 µM
IC50 for fibril inhibition (Aβ oligomers and fibrils; in vitro): 0.8 µM
IC50 for Aβ oligomerization reported by Yang, et al. (Aβ oligomers and fibrils; non-biotinylated Aβ(1-40)): ~1 µM

activity in the AP-1 cellular assay (screen) (AP-1): more active than curcumin
IC50 (AP-1): 5.3 µM
inhibition of the activation of NF-κB by TNFα (screen) (NF-κB): more active than curcumin
IC50 (NF-κB; [5]): 7.6 µM
IC50 (NF-κB; Table 10, read-out: NF-κB IC50): 7.6 µM
Structure (SMILES): COc1cc(/C=C/C(=O)/C(Cc2ccccc2)=C(O)/C=C/c2ccc(O)c(OC)c2)ccc1O [9a]
FRAP ([3]; 10 μM in ethanol, Table 5): +
FRAP ([3]; Table 10): +
TRAP ([4]; 10 μM in ethanol, Table 5): +
TRAP ([4]; Table 10): +

activity in the GSTP1-1 screening assay [1]: better inhibitory activity than curcumin
Structure (SMILES): O=C(/C=C/c1cccc(O)c1)/C=C/c1cccc(O)c1 [20p]

activity in the GSTP1-1 screening assay [1]: better inhibitory activity than curcumin
Structure (SMILES): O=C(/C=C/c1ccc(Cl)cc1)/C=C/c1ccc(Cl)cc1 [20x]

activity in the GSTP1-1 screening assay [1]: more active than curcumin
Structure (SMILES): CC(C(=O)C=Cc1ccccc1)=C(O)C=Cc1ccccc1 [6b]
